Measurements taken from US20130012473A1, “COMBINED USE OF PHOSPHOLIPID AND SULFATE GROUPS-CARRYING POLYSACCHARIDES FOR INHIBITING METASTATIC SPREAD” (KTB TUMORFORSCHUNGSGESELLSCHAFT MBH, priority 2010, published 2013).

Tests used:
[1] = system: B16.F10 ELN melanoma cells; test: Experimental lung metastasis model, luciferase assay of lung homogenates; assay type: in vivo, mouse
Procedure: Generation of luciferase expressing B16.F10 melanoma cells: For sensitive detection of metastases in vivo in lung and other murine tissues, stably luciferase-transduced B16.F10 ELN melanoma cells were established as recently described (Bornmann, C. et al., Cancer Chemother. Pharmacol. 61:395-405 (2008)).
Animal experiments: Lung metastases were induced by injecting 3×10^5 cells in 100 μl PBS into the tail vein of male C57BI/6N mice (Charles River Laboratories, Sulzfeld, Germany) (Ludwig, R. J. et al., Cancer Res. 64:2743-2750 (2004)). […] In a further experiment, animals were pre-treated 30 min before cell injection with 50 IU (Ludwig, R. J. et al., Cancer Res. 64:2743-2750 (2004)) unfractionated heparin (Ratiopharm GmbH, Ulm, Germany), followed by injection of either long-term 450 μM LysoPC treated or DMEM control medium cultured B16.F10 ELN cells. Experiments were terminated on day 14 (see establishment of the model—FIG. 9). Tissues were removed and stored as snap frozen samples. Metastatic lesions were quantified by homogenizing the tissues in luciferase lysis buffer and measuring in a luciferase assay (Promega E1501) as described (Jantscheff, P. et al., Establishment of human orthotopic LNCaP prostate cancer xenograft metastases model: Effect of Gemcitabine and GemLip. Clin. Exp. Metastasis: in press (2009); Jantscheff, P. et al., Prostate 69:1151-1163 (2009)).
Example 4: Inhibition of in vivo metastasis of B16.F10 ELN cells pretreated with LysoPC. […] For a sensitive quantitative analysis of metastatic spread in the lung, luciferase-transduced B16.F10 ELN cells were used. […]
To establish the mice metastasis model with luciferase-transduced B16.F10 melanoma cells, metastatic lesions in the lung and other tissues (those strongly supplied with blood, spleen, liver, kidney) were investigated at different time points (6 h, 24 h, 7 d, 14 d, and 19 d). Sensitivity of in vitro detection of metastatic lesions was determined as recently described (Jantscheff, P. et al., Prostate 69:1151-1163 (2009)) and limited corresponding to the detection of about 1000 cells in 1 ml tissue lysate (data not shown). Three to four animals were analyzed at each time point and metastatic lesions in lung and other tissues were determined by in vitro luciferase assay in tissue homogenates (see Material and Methods). As shown in A) significant metastasis could be detected first at day 7 and reached a plateau at day 14 in the lung. […] Therefore, in future experiments the animals were analyzed at day 14 and the experiments were limited to this time frame. Using the same scale, no metastatic lesions were detected in the other organs. […]

[2] = system: VLA-4 adhesion of B16.F10 cells to VCAM-1; test: Parallel plate flow chamber assay, cell adhesion to immobilized VCAM-1; assay type: cell-based, mouse
Procedure: Flow chamber assay: The interaction of B16.F10 cells with VCAM-1 Fc chimera under physiological flow conditions was analyzed on glass slides coated with VCAM-1 Fc chimera in a parallel plate flow chamber, as described in detail in our previous investigations (Fritzsche, J. et al., Thromb. Haemost. 100:1166-1175 (2008)).
Example 2: Impact of LysoPC treatment of B16.F10 cells on adhesion receptor activity in vitro. In order to investigate the concentration and time dependent effects of LysoPC on the receptor mediated cell binding ability, VLA-4 adhesion of B16.F10 cells to a support-fixed VCAM-1 layer was investigated (FIG. 2A). […] The LysoPC effects on adhesion became amplified by repeated LysoPC feeding.

[3] = system: P-selectin mediated interaction of B16.F10 cells with activated platelets; test: Binding of calcein-labeled TRAP-14 activated platelets to B16.F10 cells; assay type: cell-based, mouse; conditions: cells treated with 450 μM LysoPC for 48 h
Procedure: Platelet isolation: Platelets from blood of healthy volunteers were separated, routinely tested for viability, and activated by TRAP-14 (Bachem GmbH, Weil am Rhein, Germany) as recently described (Fritzsche, J. et al., Thromb. Haemost. 100:1166-1175 (2008)). Isolated platelets were stored at 37° C. in a water bath.
B) Binding of calcein-labeled TRAP-14 activated platelets to B16.F10 cells treated with 450 μM LysoPC for 48 h was analyzed by fluorescence microscopy. […] Data represent means±SD from three independent experiments. P, resting platelets; aP, activated platelets; LysoPC, LysoPC treated B16.F10 cells; Ab, Ig-matched control antibody.

[4] = system: VCAM-1 Fc chimera; test: Flow cytometry, binding of soluble VCAM-1 Fc chimera; assay type: cell-based, mouse; conditions: repeatedly incubated with 450 μM LysoPC for 13 days
Procedure: FIG. 3: Impact of exogenous LysoPC on the surface expression of VLA-4 or VCAM-1- and P-selectin-ligands. (A) Surface expression of VLA-4 on B16.F10 cells treated with 450 μM LysoPC for 13 days was controlled by flow cytometric analysis. […] FACS histograms (A-C) show one representative of three independent experiments. In all experiments cells only incubated with the respective FITC-conjugated detection antibody served as control.

Structure (SMILES): CCCCCCCCCCCCCCCCC(=O)OC[C@@H](O)COP(=O)([O-])OCC[N+](C)(C)C [LysoPC]
- metastatic lesions in the lung, mean percentage relative to untreated controls (100%) ([1]; B16.F10 ELN cells treated ex vivo six times with 450 μM LysoPC (long-term), injected i.v., lung luciferase assay day 14): 51.7%
- lung luciferase activity compared to control ([1]; cells treated twice with 300 μM LysoPC (short-term), day 14): slightly but insignificantly enhanced luciferase activity
- macroscopically visible metastatic foci on lung surface ([1]; long-term 450 μM LysoPC group, day 14): clearly smaller numbers of metastatic foci
- macroscopically visible metastatic foci on lung surface ([1]; short-term 300 μM LysoPC group vs control, day 14): no differences were seen between the control and the short-term group
- cell binding to support-fixed VCAM-1 ([2]; repeated addition of 300 μM LysoPC (13 days)): no effect in reducing the VLA-4 binding
- cell binding to support-fixed VCAM-1 ([2]; single incubation with 300 μM LysoPC for 72 h): did not mediate significant binding decrease
- cell binding to support-fixed VCAM-1 ([2]; single incubation with 450 μM LysoPC for 72 h before VLA-4 activation): significantly impaired the cell binding
- cell binding to support-fixed VCAM-1 ([2]; treated six times with 450 μM LysoPC (13 days)): complete binding inhibition
- interaction of B16.F10 cells with activated platelets [3]: significantly (p<0.001) reduced P-selectin mediated interaction with activated platelets to the level of resting cells
- functionality of VLA-4 to interact with soluble VCAM-1-Fc chimera [4]: only slightly impaired
